What was measured:
[1] = rate of absorption after parenteral versus oral administration; assay type: in vivo; conditions: such as IM, versus oral administration of the same dose
Description: Intramuscular injection is the preferred mode of delivery to the mammal being treated particularly in emergency situations. […] Preferably the lyophilized pharmaceutical formulation of this invention is diluted with aqueous solvent suitable for injection and a liquid unit dosage form prepared for administration to a mammal.

[2] = solubility in parenteral diluents; conditions: parenteral diluents suitable for injection

| SMILES | rate of absorption [1] | solubility in parenteral diluents [2] |
| --- | --- | --- |
| Cc1cc2c(s1)Nc1ccccc1N=C2N1CCN(C)CC1 [olanzapine, 2-methyl-4-(4-methyl-1-piperazinyl)-10H-thieno[2,3-b][1,5]benzodiazepine] | more rapid | relatively insoluble |
| Cc1cc2c(s1)Nc1ccccc1N=C2N1CCN(C)CC1 [Form II] |  | does not readily dissolve |

— patent publication US20040176357A1, “2 Methyl-thieno-benzodiazepine lyophilized formulation” (priority 2001, published 2004)
